Reference: the supplement of paper PMC8671470

Tests used:
Conditions in all cases: 72 h
HL-60 [1] = experiment: cell viability (% survival relative to DMSO control); higher = less cytotoxic
In short: (§1)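 Area under the curve, where listed, was derived from four-parameter log-logistic fits with drc and PharmacoGx. These fits used CellTiter-Glo viability from HL-60 cells in RPMI 1640 with 10% FBS, normalised to DMSO wells and wells holding 10 μM proteasome inhibitor. The full library was rescreened on 384-well plates in duplicate at five tenfold concentrations, 1–10,000 nM, with DMSO or 100 nM of one of three metabolic inhibitors, for 72 h at 37 °C, 5% CO2.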

HL-60 [2] = experiment: area under dose-response curve (viability, 1 nM-10 uM) (fraction (0-1)); higher = more sensitive
In short: as §1

KCL-22 [3] = system: KCL-22
In short: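 Fifteen myeloid leukaemia cell lines were seeded in RPMI 1640 at a density titrated to the linear growth range. Each line went into 384-well plates with compounds acoustically pre-printed at five tenfold doses from 1 to 10,000 nM, in duplicate, and was incubated for 72 h at 37 °C with 5% CO2. Luminescent ATP viability was normalised to vehicle and to a positive control at 10 µM. The IC50 came from four-parameter log-logistic dose–response fits.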

KG-1 = experiment: cell viability (% survival relative to DMSO control, bortezomib = 0%); higher = less cytotoxic
In short: (§2)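 After 72 h at 37 °C with 5% CO2, cell viability in 384-well plates was measured by CellTiter-Glo luminescence. The plates held compounds pre-printed at 1, 10, 100, 1000 or 10000 nM in duplicate, and cells from 10 AML and 5 CML lines seeded at densities titrated to linear growth. Percent survival is the duplicate mean, normalised to vehicle as 100% and a 10 µM positive control as 0%.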

HL-60 [4] = experiment: as above
In short: as §2

LAMA-84 = experiment: as above
In short: as §2

KCL-22 [5] = experiment: as above
In short: as §2

ML-2 = experiment: as above
In short: as §2

K-562 = experiment: as above
In short: as §2

HEL = experiment: as above
In short: as §2

SHI-1 = experiment: as above
In short: as §2

THP-1 = experiment: as above
In short: as §2

MOLM-13 = experiment: as above
In short: as §2

MV4-11 = experiment: as above
In short: as §2

BV-173 = experiment: as above
In short: as §2

NOMO-1 = experiment: as above
In short: as §2

KU-812 = experiment: as above
In short: as §2

Mono-Mac-6 = experiment: as above
In short: as §2

O=C(NNc1ccccc1)c1ccncc1 [PluriSln 1]
cell viability [%], HL-60 [1]
Conditions | 0.001 µM | 0.01 µM | 0.1 µM | 1 µM | 10 µM
co-treatment: AZD3965 100 nM | 101 | 101 | 96.2 | 110 | 36
co-treatment: DMSO vehicle | 102 | 102 | 102 | 103 | 49.8
co-treatment: GSK2194069 100 nM | 103.4 | 103 | 95.8 | 104 | 91.3
co-treatment: pictilisib 100 nM | 94.1 | 107 | 83.7 | 116 | 92.411

Conditions | area under dose-response curve, co-treatment: AZD3965 100 nM | area under dose-response curve, co-treatment: DMSO vehicle | area under dose-response curve, co-treatment: GSK2194069 100 nM | area under dose-response curve, co-treatment: pictilisib 100 nM | cell viability, 1 nM [%] | cell viability, 10 nM [%] | cell viability, 100 nM [%] | cell viability, 1000 nM [%] | cell viability, 10000 nM [%]
BV-173 | – | – | – | – | 86 | 93.5 | 97 | 104 | 82.6
HEL | – | – | – | – | 95.1 | 99.2 | 96.8 | 105 | 78.1
HL-60 [2] | 0.0541 | 0.0377 | < 0.0301 | < 0.0301 | – | – | – | – | –
HL-60 [4] | – | – | – | – | 102 | 94.1 | 90.5 | 109 | 20.7
K-562 | – | – | – | – | 93.4 | 85.7 | 90.4 | 86.4 | 52
KCL-22 [5] | – | – | – | – | 89.9 | 102 | 99.7 | 110 | 41.5
KG-1 | – | – | – | – | 88.5 | 104 | 102 | 98.4 | 62.8
KU-812 | – | – | – | – | 93.3 | 93.8 | 93.2 | 102 | 92.5
LAMA-84 | – | – | – | – | 88.4 | 99.4 | 92.1 | 106 | 39.9
ML-2 | – | – | – | – | 93.3 | 97.6 | 92.8 | 103 | 81
MOLM-13 | – | – | – | – | 80.5 | 92 | 96.7 | 87.1 | 25.4
MV4-11 | – | – | – | – | 92.1 | 99.2 | 99.3 | 109 | 89.4
Mono-Mac-6 | – | – | – | – | 106 | 103 | 104 | 110 | 87.2
NOMO-1 | – | – | – | – | 91 | 101 | 91.8 | 106 | 89.6
SHI-1 | – | – | – | – | 91.5 | 95.5 | 93 | 105 | 92.6
THP-1 | – | – | – | – | 97.2 | 97.1 | 100 | 108 | 95.4

Conditions | IC50 (cell viability) [µM]
KCL-22 [3] | 8.52

COc1ccc(S(=O)(=O)N2CCN(S(=O)(=O)c3ccc4c(c3)OCCO4)CC2)cc1 [BML283]
cell viability [%], HL-60 [1]
Conditions | 0.001 µM | 0.01 µM | 0.1 µM | 1 µM | 10 µM
co-treatment: AZD3965 100 nM | 101.4 | 96.5 | 107 | 104 | 84
co-treatment: DMSO vehicle | 102 | 86.2 | 103 | 107 | 97.1
co-treatment: GSK2194069 100 nM | 99.2 | 74.9 | 99.56 | 99.4 | 98.6
co-treatment: pictilisib 100 nM | 105 | 74.7 | 100.2 | 90.1 | 77.4

Conditions | area under dose-response curve, co-treatment: AZD3965 100 nM | area under dose-response curve, co-treatment: DMSO vehicle | area under dose-response curve, co-treatment: GSK2194069 100 nM | area under dose-response curve, co-treatment: pictilisib 100 nM | cell viability, 1 nM [%] | cell viability, 10 nM [%] | cell viability, 100 nM [%] | cell viability, 1000 nM [%] | cell viability, 10000 nM [%]
BV-173 | – | – | – | – | 89.9 | 85.8 | 97.5 | 91.7 | 112
HEL | – | – | – | – | 107 | 88.3 | 96.7 | 90.8 | 101
HL-60 [2] | < 0.0301 | < 0.0301 | < 0.0301 | 0.0571 | – | – | – | – | –
HL-60 [4] | – | – | – | – | 104 | 97.4 | 85.2 | 120 | 99.9
K-562 | – | – | – | – | 107 | 95.2 | 97.7 | 92.5 | 98.6
KCL-22 [5] | – | – | – | – | 106 | 93.3 | 91.1 | 98.1 | 91.2
KG-1 | – | – | – | – | 92.7 | 105 | 99 | 109 | 105
KU-812 | – | – | – | – | 90.3 | 99.5 | 103 | 108 | 96.5
LAMA-84 | – | – | – | – | 101 | 93.8 | 100 | 103 | 106
ML-2 | – | – | – | – | 102 | 98.6 | 105 | 106 | 102
MOLM-13 | – | – | – | – | 96.4 | 81.7 | 100 | 113 | 97.8
MV4-11 | – | – | – | – | 103 | 93.6 | 89 | 94.1 | 101
Mono-Mac-6 | – | – | – | – | 103 | 101 | 99.8 | 97.6 | 98.6
NOMO-1 | – | – | – | – | 98 | 95.1 | 94.9 | 102 | 99.7
SHI-1 | – | – | – | – | 110 | 94.8 | 96.9 | 96.3 | 103
THP-1 | – | – | – | – | 98.5 | 103 | 99.3 | 98.9 | 103

Conditions | IC50 (cell viability) [µM]
KCL-22 [3] | > 10
